Results taken from the supplement of paper PMC8617591.

Columns and labels:
[1] = system: Mycobacterium tuberculosis Erdman (autoluminescent); experiment: total FIC90 (Loewe) at 90% inhibition, three-drug combination (log2); higher = more antagonistic
Method: (§1)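 DiaMOND equipotent three-drug combination dose responses (10 doses, 1.5- or 2-fold spacing, centred on IC90) against autoluminescent M. tuberculosis Erdman in 8 in vitro models. Read-out is OD600, or luminescence for the intracellular and dormancy models, normalised to untreated wells. Hill-fit Einf, AUC25 and GRinf are potency metrics; FIC50 and FIC90 are total Loewe fractional inhibitory concentrations as log2 (negative = synergy).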

[2] = system: Mycobacterium tuberculosis Erdman (autoluminescent); experiment: GRinf, maximum normalised growth rate inhibition (three-drug combination) (unitless (-1 to 1)); higher = less effect (negative = killing)
Method: as §1

[3] = system: Mycobacterium tuberculosis Erdman (autoluminescent); experiment: Einf, fitted maximum growth inhibition of three-drug combination (fraction); higher = stronger maximal inhibition
Method: as §1

[4] = system: Mycobacterium tuberculosis Erdman (autoluminescent); experiment: total FIC50 (Loewe) at 50% inhibition, three-drug combination (log2); higher = more antagonistic
Method: as §1

[5] = system: Mycobacterium tuberculosis Erdman (autoluminescent); experiment: AUC25, normalised area under dose response up to IC25 (three-drug combination) (fraction (0-1)); higher = more potent at low dose
Method: as §1

COc1nc2ccc(Br)cc2cc1[C@@H](c1ccccc1)[C@@](O)(CCN(C)C)c1cccc2ccccc12 [bedaquiline] + CC[C@@H](CO)NCCN[C@@H](CC)CO [ethambutol] + COc1c(N2C[C@@H]3CCCN[C@@H]3C2)c(F)cc2c(=O)c(C(=O)O)cn(C3CC3)c12 [moxifloxacin]
Settings | AUC25, [5] | Einf, [3] | GRinf, [2] | total FIC50, [4] | total FIC90, [1]
in vitro model: acidic pH 5.7, time point: constant (~7 days, model-specific) | 0.0871 | 0.818 | -0.484 | 0.542 | –
in vitro model: acidic pH 5.7, time point: terminal (~4-5 doublings, model-specific) | 0.0798 | 0.968 | -0.239 | 0.896 | 0.318
in vitro model: intracellular J774, time point: constant = terminal | – | 0.951 | -0.177 | – | -0.597

Settings | AUC25, [5] | Einf, [3] | GRinf, [2] | total FIC50, [4] | total FIC90, [1]
in vitro model: butyrate, time point: constant (~7 days, model-specific) | 0.0669 | 0.943 | -0.107 | 0.634 | –
in vitro model: butyrate, time point: terminal (~4-5 doublings, model-specific) | 0.0565 | 0.976 | -0.091 | 0.608 | 0.135
in vitro model: cholesterol 0.05 mM, time point: constant (~7 days, model-specific) | 0.0787 | 0.746 | -0.304 | 0.605 | –
in vitro model: cholesterol 0.05 mM, time point: terminal (~4-5 doublings, model-specific) | 0.0645 | 0.902 | -0.132 | 1.36 | 0.517
in vitro model: cholesterol-high 0.2 mM, time point: constant (~7 days, model-specific) | 0.0262 | 0.947 | -0.654 | 1.13 | –
in vitro model: cholesterol-high 0.2 mM, time point: terminal (~4-5 doublings, model-specific) | 0.0315 | 1 | -0.729 | 1.33 | 1.07
in vitro model: dormancy (butyrate + nitrate, low O2), time point: constant (~7 days, model-specific) | 0.14 | 0.884 | 0.39 | 1.02 | –
in vitro model: dormancy (butyrate + nitrate, low O2), time point: terminal (~4-5 doublings, model-specific) | 0.114 | 0.987 | -0.126 | 0.343 | 0.644
in vitro model: standard 7H9 glycerol, time point: constant = terminal | 0.0556 | 0.955 | -0.0832 | 0.482 | 0.479
in vitro model: valerate, time point: constant (~7 days, model-specific) | 0.0922 | 0.906 | -0.0299 | 0.726 | –
in vitro model: valerate, time point: terminal (~4-5 doublings, model-specific) | 0.0526 | 0.939 | -0.0195 | 0.757 | 0.289

COc1nc2ccc(Br)cc2cc1[C@@H](c1ccccc1)[C@@](O)(CCN(C)C)c1cccc2ccccc12 [bedaquiline] + CC[C@@H](CO)NCCN[C@@H](CC)CO [ethambutol] + NC(=O)c1cnccn1 [pyrazinamide]
Settings | AUC25, [5] | Einf, [3] | GRinf, [2] | total FIC50, [4] | total FIC90, [1]
in vitro model: acidic pH 5.7, time point: constant (~7 days, model-specific) | 0.0897 | 0.873 | -0.571 | -0.0886 | –
in vitro model: acidic pH 5.7, time point: terminal (~4-5 doublings, model-specific) | 0.0657 | 0.97 | -0.4 | 0.412 | -0.299
in vitro model: intracellular J774, time point: constant = terminal | – | 0.975 | -0.486 | – | -0.0128

Settings | AUC25, [5] | Einf, [3] | GRinf, [2] | total FIC50, [4] | total FIC90, [1]
in vitro model: butyrate, time point: constant (~7 days, model-specific) | 0.0804 | 0.958 | -0.23 | 0.369 | –
in vitro model: butyrate, time point: terminal (~4-5 doublings, model-specific) | 0.0692 | 0.98 | -0.518 | 0.327 | -0.0291
in vitro model: cholesterol 0.05 mM, time point: constant (~7 days, model-specific) | 0.0893 | 0.735 | -0.275 | – | –
in vitro model: cholesterol 0.05 mM, time point: terminal (~4-5 doublings, model-specific) | 0.113 | 0.942 | -0.531 | 1.2 | –
in vitro model: cholesterol-high 0.2 mM, time point: constant (~7 days, model-specific) | 0.0376 | 0.954 | -0.425 | 1.15 | –
in vitro model: cholesterol-high 0.2 mM, time point: terminal (~4-5 doublings, model-specific) | 0.0549 | 1 | -0.723 | 1 | 1.04
in vitro model: dormancy (butyrate + nitrate, low O2), time point: constant (~7 days, model-specific) | 0.11 | 0.818 | 0.489 | 0.665 | –
in vitro model: dormancy (butyrate + nitrate, low O2), time point: terminal (~4-5 doublings, model-specific) | 0.106 | 0.99 | -0.119 | 0.467 | 0.729
in vitro model: standard 7H9 glycerol, time point: constant = terminal | 0.0685 | 0.924 | 0.0247 | 0.382 | –
in vitro model: valerate, time point: constant (~7 days, model-specific) | 0.0945 | 0.901 | -0.0908 | 0.734 | –
in vitro model: valerate, time point: terminal (~4-5 doublings, model-specific) | 0.0602 | 0.954 | -0.0443 | 0.806 | -0.297

COc1nc2ccc(Br)cc2cc1[C@@H](c1ccccc1)[C@@](O)(CCN(C)C)c1cccc2ccccc12 [bedaquiline] + CC[C@@H](CO)NCCN[C@@H](CC)CO [ethambutol] + NNC(=O)c1ccncc1 [isoniazid]
Settings | AUC25, [5] | Einf, [3] | GRinf, [2] | total FIC50, [4] | total FIC90, [1]
in vitro model: acidic pH 5.7, time point: constant (~7 days, model-specific) | 0.112 | 0.858 | -0.682 | 0.0458 | –
in vitro model: acidic pH 5.7, time point: terminal (~4-5 doublings, model-specific) | 0.0484 | 0.953 | -0.339 | 0.537 | -0.855
in vitro model: intracellular J774, time point: constant = terminal | – | 0.988 | -0.401 | – | -0.307

Settings | AUC25, [5] | Einf, [3] | GRinf, [2] | total FIC50, [4] | total FIC90, [1]
in vitro model: butyrate, time point: constant (~7 days, model-specific) | 0.0535 | 0.943 | -0.0949 | 0.537 | –
in vitro model: butyrate, time point: terminal (~4-5 doublings, model-specific) | 0.0425 | 0.975 | -0.105 | 0.472 | -0.153
in vitro model: cholesterol 0.05 mM, time point: constant (~7 days, model-specific) | 0.0741 | 0.695 | -0.191 | 0.858 | –
in vitro model: cholesterol 0.05 mM, time point: terminal (~4-5 doublings, model-specific) | 0.0839 | 0.891 | -0.205 | 1.12 | 0.995
in vitro model: cholesterol-high 0.2 mM, time point: constant (~7 days, model-specific) | 0.026 | 0.998 | -0.751 | 1.05 | –
in vitro model: cholesterol-high 0.2 mM, time point: terminal (~4-5 doublings, model-specific) | 0.0384 | 1 | -0.702 | 1.09 | 0.96
in vitro model: dormancy (butyrate + nitrate, low O2), time point: constant (~7 days, model-specific) | 0.121 | 0.849 | 0.491 | 1.04 | –
in vitro model: dormancy (butyrate + nitrate, low O2), time point: terminal (~4-5 doublings, model-specific) | 0.0982 | 0.987 | -0.0322 | 0.301 | 0.198
in vitro model: standard 7H9 glycerol, time point: constant = terminal | 0.0658 | 0.957 | -0.0846 | 0.398 | –
in vitro model: valerate, time point: constant (~7 days, model-specific) | 0.116 | 0.912 | -0.0812 | 0.656 | –
in vitro model: valerate, time point: terminal (~4-5 doublings, model-specific) | 0.0717 | 0.954 | -0.0498 | 0.744 | 0.58
